Each block holds one compound with its values, some of them ahead of it. The source made the active and inactive calls. No cut-off for these calls is given here.
Key:
[1] = molecular target: T1, Interleukin-1 receptor-associated kinase 4 (Homo sapiens, UniProt Q9NWZ3); assay: Inhibition of IRAK4 (unknown origin) using FAM-labeled peptide as substrate incubated for 10 mins in presence of ATP by mobility shift assay
T1 sequence (Q9NWZ3 whole entry): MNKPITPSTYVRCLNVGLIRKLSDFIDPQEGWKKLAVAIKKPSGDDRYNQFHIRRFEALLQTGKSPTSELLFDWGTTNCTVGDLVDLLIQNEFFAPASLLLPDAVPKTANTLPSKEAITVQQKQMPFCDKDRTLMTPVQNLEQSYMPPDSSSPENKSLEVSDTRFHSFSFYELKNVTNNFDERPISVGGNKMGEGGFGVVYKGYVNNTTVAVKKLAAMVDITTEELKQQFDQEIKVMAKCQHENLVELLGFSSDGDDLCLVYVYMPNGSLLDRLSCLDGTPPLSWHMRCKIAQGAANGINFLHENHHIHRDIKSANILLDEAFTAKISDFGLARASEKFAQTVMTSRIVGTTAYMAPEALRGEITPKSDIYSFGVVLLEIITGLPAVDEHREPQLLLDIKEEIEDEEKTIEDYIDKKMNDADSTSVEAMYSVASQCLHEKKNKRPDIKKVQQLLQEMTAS

[2] = Oral bioavailability in Sprague-Dawley rat at 5 to 10 mg/kg measured after 0.25 to 24 hrs by LC-MS analysis; format: ADME, organism-based; conditions: in vivo, dose lower 5 mg/kg, time lower 0.25 hrs, dose upper 10 mg/kg, time upper 24 hrs
[3] = Clearance in Sprague-Dawley rat at 2 mg/kg, iv measured after 5 mins to 24 hrs by LC-MS analysis; format: ADME, organism-based; conditions: in vivo, time 5-1440 min
[4] = molecular target: cAMP-dependent protein kinase catalytic subunit beta (Homo sapiens, UniProt P22694); assay: Inhibition of PKA-C beta (unknown origin) by scintillation proximity assay
[5] = Plasma protein binding in Sprague-Dawley rat by LC-MS analysis; format: ADME, cell-free; conditions: read-out: PPB (converted)
[6] = molecular target: Receptor-interacting serine/threonine-protein kinase 2 (Homo sapiens, UniProt O43353); assay: Inhibition of RIPK2 (unknown origin) by scintillation proximity assay
[7] = molecular target: Calcium/calmodulin-dependent protein kinase type 1 (Homo sapiens, UniProt Q14012); assay: Inhibition of CaMKI (unknown origin) by scintillation proximity assay
[8] = system: BMDM; assay: Cytotoxicity against immortalized mouse BMDM cells at 3 uM; format: toxicity, cell-based
[9] = molecular target: Tyrosine-protein kinase JAK1 (Homo sapiens, UniProt P23458); assay: Inhibition of JAK1 (unknown origin) by scintillation proximity assay
[10] = molecular target: MAP kinase-activated protein kinase 2 (Homo sapiens, UniProt P49137); assay: Inhibition of MAPKAP-K2 (unknown origin) by scintillation proximity assay
MAP kinase-activated protein kinase 2, sequence (P49137 whole entry): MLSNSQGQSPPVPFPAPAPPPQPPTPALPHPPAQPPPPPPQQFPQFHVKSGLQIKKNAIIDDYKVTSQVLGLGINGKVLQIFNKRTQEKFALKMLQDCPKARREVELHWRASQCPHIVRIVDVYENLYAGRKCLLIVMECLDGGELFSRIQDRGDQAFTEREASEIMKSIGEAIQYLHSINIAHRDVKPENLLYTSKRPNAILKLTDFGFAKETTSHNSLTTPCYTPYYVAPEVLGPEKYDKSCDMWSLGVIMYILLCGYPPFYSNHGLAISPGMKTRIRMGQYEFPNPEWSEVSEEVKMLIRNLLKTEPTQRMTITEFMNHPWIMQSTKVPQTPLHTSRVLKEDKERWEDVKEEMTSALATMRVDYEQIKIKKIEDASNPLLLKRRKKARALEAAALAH

[11] = molecular target: Serine/threonine-protein kinase 17A (Homo sapiens, UniProt Q9UEE5); assay: Inhibition of DRAK1 (unknown origin) by scintillation proximity assay
[12] = molecular target: Dual specificity tyrosine-phosphorylation-regulated kinase 1A (Homo sapiens, UniProt Q13627); assay: Inhibition of DYRK1A (unknown origin) by scintillation proximity assay
[13] = Inhibition of CDK2/cyclinA (unknown origin) by scintillation proximity assay; set-up: species or system Homo sapiens
[14] = Inhibition of LPS-induced TNFalpha protein expression in immortalized mouse BMDM cells preincubated for 2 hrs followed by LPS stimulation and measured after 16 hrs by ELISA; format: functional, cell-based
[15] = Inhibition of LPS-induced IL-6 mRNA expression in immortalized mouse BMDM cells preincubated for 2 hrs followed by LPS stimulation and measured after 16 hrs by qPCR analysis; format: functional, cell-based
[16] = molecular target: Serine/threonine-protein kinase MRCK alpha (Homo sapiens, UniProt Q5VT25); assay: Inhibition of MRCKa (unknown origin) by scintillation proximity assay
Serine/threonine-protein kinase MRCK alpha, sequence (Q5VT25 whole entry): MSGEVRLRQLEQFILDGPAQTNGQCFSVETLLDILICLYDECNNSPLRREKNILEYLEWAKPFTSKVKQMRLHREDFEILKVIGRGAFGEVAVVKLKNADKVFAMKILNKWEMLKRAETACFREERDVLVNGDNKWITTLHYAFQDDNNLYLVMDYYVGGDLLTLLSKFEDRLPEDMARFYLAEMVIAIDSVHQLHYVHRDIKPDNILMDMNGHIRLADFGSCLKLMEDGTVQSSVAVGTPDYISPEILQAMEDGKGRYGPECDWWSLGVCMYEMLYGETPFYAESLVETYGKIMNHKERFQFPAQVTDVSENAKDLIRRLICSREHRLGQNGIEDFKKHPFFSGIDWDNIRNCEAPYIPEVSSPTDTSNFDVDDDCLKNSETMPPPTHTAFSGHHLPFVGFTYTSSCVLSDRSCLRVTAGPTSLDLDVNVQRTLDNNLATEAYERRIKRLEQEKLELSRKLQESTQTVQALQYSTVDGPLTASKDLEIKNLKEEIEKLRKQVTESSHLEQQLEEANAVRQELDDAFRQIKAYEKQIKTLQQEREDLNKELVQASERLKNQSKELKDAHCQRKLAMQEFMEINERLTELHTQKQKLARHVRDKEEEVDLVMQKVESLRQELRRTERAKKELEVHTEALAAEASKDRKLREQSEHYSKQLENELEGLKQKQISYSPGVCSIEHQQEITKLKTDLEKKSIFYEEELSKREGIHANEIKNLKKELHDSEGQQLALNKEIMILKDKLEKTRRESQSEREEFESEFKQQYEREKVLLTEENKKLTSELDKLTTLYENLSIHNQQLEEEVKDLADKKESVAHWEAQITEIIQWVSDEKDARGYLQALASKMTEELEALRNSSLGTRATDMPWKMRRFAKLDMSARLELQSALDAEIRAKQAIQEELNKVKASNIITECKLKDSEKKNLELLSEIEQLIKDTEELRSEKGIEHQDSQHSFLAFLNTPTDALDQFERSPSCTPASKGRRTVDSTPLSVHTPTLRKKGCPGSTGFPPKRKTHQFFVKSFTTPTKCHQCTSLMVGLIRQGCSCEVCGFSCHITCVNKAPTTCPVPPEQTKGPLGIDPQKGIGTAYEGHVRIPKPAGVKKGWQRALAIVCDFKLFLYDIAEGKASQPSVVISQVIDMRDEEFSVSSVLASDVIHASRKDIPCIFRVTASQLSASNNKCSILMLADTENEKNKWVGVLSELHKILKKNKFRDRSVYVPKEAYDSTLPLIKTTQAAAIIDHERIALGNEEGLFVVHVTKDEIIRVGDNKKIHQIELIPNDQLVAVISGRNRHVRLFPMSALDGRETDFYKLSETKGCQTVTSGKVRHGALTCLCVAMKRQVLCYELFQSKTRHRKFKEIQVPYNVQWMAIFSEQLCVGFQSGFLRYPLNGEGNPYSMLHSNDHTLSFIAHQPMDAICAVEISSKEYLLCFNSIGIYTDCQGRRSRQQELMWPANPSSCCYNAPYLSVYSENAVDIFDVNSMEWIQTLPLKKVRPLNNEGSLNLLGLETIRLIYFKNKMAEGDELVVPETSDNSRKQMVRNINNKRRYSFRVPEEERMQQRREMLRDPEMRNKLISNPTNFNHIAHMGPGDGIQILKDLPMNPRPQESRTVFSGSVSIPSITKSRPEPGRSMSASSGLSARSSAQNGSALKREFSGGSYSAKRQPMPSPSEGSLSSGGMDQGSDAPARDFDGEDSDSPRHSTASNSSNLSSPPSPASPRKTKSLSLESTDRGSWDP

[17] = molecular target: Receptor-type tyrosine-protein kinase FLT3 (Homo sapiens, UniProt P36888); assay: Inhibition of FLT3 (unknown origin) by scintillation proximity assay
[18] = molecular target: Epidermal growth factor receptor (Homo sapiens, UniProt P00533); assay: Inhibition of EGFR (unknown origin) by scintillation proximity assay
[19] = molecular target: Serine/threonine-protein kinase B-raf (Homo sapiens, UniProt P15056); assay: Inhibition of B-Raf (unknown origin) by scintillation proximity assay
[20] = Inhibition of LPS-induced IL-6 mRNA expression in human PBMC cells preincubated for 2 hrs followed by LPS stimulation and measured after 16 hrs by qPCR analysis; format: functional, cell-based
[21] = molecular target: Dual specificity protein kinase CLK1 (Homo sapiens, UniProt P49759); assay: Inhibition of CLK1 (unknown origin) by scintillation proximity assay
[22] = molecular target: Tyrosine-protein kinase BTK (Homo sapiens, UniProt Q06187); assay: Inhibition of BTK (unknown origin) by scintillation proximity assay
Tyrosine-protein kinase BTK, sequence (Q06187 whole entry): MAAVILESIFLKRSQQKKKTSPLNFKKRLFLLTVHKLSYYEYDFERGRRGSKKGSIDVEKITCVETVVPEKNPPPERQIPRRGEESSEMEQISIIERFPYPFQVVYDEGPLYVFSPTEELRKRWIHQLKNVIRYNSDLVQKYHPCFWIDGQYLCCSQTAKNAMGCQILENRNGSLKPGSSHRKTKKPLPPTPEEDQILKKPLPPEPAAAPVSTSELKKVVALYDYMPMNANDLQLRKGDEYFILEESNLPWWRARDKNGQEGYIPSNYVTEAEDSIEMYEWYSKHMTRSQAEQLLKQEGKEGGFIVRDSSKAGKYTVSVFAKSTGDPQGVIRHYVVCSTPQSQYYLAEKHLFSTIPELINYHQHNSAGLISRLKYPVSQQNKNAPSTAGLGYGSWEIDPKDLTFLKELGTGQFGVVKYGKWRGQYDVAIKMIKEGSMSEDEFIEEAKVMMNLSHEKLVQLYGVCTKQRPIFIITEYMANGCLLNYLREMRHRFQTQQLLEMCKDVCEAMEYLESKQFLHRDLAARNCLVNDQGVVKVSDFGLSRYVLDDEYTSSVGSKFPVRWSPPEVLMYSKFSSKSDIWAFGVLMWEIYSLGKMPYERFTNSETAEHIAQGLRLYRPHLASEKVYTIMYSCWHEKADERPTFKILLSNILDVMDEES

[23] = Clearance in Sprague-Dawley rat assessed as liver blood flow at 2 mg/kg, iv measured after 5 mins to 24 hrs by LC-MS analysis; format: ADME, organism-based; conditions: in vivo, time 5-1440 min
[24] = Inhibition of LPS-induced IL-6 protein expression in immortalized mouse BMDM cells preincubated for 2 hrs followed by LPS stimulation and measured after 16 hrs by ELISA; format: functional, cell-based
[25] = Inhibition of LPS-induced TNFalpha mRNA expression in immortalized mouse BMDM cells preincubated for 2 hrs followed by LPS stimulation and measured after 16 hrs by qPCR analysis; format: functional, cell-based
[26] = Inhibition of LPS-induced TNFalpha protein expression in human PBMC cells preincubated for 2 hrs followed by LPS stimulation and measured after 16 hrs by ELISA; format: functional, cell-based
[27] = molecular target: Mitogen-activated protein kinase kinase kinase 5 (Homo sapiens, UniProt Q99683); assay: Inhibition of ASK1 (unknown origin) by scintillation proximity assay
Mitogen-activated protein kinase kinase kinase 5, sequence (Q99683 whole entry): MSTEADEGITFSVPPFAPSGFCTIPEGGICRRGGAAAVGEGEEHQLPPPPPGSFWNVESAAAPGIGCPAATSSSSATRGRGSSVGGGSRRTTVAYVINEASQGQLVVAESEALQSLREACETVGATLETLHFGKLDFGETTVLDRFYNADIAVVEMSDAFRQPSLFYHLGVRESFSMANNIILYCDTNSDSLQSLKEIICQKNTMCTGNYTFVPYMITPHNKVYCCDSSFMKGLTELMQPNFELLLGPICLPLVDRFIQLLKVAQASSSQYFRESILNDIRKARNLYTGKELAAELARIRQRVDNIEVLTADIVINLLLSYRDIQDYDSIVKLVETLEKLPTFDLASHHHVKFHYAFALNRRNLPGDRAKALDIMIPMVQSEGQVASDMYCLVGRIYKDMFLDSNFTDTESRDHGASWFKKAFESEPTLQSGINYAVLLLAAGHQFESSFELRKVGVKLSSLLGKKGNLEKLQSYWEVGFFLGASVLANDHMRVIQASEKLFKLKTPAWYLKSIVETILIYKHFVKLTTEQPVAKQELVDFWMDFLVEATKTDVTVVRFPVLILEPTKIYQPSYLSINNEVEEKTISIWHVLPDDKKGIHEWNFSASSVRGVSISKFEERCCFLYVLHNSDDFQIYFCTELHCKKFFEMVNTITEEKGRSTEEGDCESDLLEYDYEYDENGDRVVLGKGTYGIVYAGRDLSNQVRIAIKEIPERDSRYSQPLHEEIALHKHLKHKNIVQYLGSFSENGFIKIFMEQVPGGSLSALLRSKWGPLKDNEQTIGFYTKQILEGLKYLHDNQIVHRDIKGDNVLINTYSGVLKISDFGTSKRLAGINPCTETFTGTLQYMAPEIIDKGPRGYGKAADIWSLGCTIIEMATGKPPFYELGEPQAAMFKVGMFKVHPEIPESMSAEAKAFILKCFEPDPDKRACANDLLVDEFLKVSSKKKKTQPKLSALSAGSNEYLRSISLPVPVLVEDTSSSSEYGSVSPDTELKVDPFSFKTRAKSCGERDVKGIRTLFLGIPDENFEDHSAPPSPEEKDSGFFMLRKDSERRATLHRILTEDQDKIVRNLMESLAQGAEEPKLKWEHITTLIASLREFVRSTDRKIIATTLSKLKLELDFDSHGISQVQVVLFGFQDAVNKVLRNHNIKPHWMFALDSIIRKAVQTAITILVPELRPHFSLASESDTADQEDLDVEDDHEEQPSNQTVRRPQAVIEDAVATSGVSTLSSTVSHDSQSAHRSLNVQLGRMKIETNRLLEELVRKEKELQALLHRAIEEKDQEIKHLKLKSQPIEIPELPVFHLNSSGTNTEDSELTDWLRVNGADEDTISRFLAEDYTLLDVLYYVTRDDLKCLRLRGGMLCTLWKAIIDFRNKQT

[28] = Cytotoxicity against Splenocytes (unknown origin) at 3 uM; format: toxicity, cell-based; conditions: splenocyte
[29] = system: MEF; assay: Cytotoxicity against MEF cells at 3 uM; format: toxicity, cell-based; conditions: mouse
[30] = molecular target: Receptor-interacting serine/threonine-protein kinase 1 (Homo sapiens, UniProt Q13546); assay: Inhibition of RIPK1 (unknown origin) by scintillation proximity assay
[31] = Plasma protein binding in human by LC-MS analysis; format: ADME, cell-free; conditions: read-out: PPB
[32] = molecular target: Homeodomain-interacting protein kinase 1 (Homo sapiens, UniProt Q86Z02); assay: Inhibition of HIPK1 (unknown origin) by scintillation proximity assay
[33] = molecular target: Serine/threonine-protein kinase 38 (Homo sapiens, UniProt Q15208); assay: Inhibition of NDR1 (unknown origin) by scintillation proximity assay
[34] = Plasma protein binding in CD-1 mouse by LC-MS analysis; format: ADME, cell-free; conditions: read-out: PPB (converted)
[35] = molecular target: Serine/threonine-protein kinase PAK 1 (Homo sapiens, UniProt Q13153); assay: Inhibition of PAK1 (unknown origin) by scintillation proximity assay
[36] = molecular target: CDK4/Cyclin D3 (Homo sapiens, UniProt P11802); assay: Inhibition of CDK4/cyclinD3 (unknown origin) by scintillation proximity assay; format: protein-complex assay
CDK4/Cyclin D3, sequence (P11802 whole entry): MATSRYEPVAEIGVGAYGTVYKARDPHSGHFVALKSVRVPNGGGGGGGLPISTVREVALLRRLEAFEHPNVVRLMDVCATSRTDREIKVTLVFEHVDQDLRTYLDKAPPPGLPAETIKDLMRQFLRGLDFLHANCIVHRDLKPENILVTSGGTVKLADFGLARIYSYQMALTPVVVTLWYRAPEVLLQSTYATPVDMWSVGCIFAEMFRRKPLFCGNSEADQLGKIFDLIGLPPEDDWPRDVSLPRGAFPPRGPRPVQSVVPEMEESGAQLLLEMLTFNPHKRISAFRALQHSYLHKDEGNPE
CDK4/Cyclin D3, sequence (P30281 whole entry, further chain): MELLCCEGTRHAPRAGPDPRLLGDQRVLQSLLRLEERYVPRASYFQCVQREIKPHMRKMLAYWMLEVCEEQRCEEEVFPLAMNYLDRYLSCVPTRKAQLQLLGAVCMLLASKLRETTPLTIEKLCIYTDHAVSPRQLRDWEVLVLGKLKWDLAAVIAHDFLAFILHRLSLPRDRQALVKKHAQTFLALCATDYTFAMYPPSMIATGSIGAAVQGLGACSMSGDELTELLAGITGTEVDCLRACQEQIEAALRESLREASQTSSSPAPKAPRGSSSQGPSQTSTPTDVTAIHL

[37] = molecular target: Interleukin-1 receptor-associated kinase 1 (Homo sapiens, UniProt P51617); assay: Binding affinity to IRAK1 (unknown origin) by kinomescan competition binding assay
[38] = system: Mus musculus; assay: In vivo inhibition of LPS-induced TNF-alpha protein level in C57BL/6 mouse assessed as reduction in TNF-alpha level in serum at 50 to 100 mg/kg, po administered for 1 hr followed by LPS stimulation and measured after 3 hrs by ELISA; format: functional, organism-based; conditions: dose 50-100 mg/kg, time 4.0 hrs

Compound: CCOc1nc2c(cc1C(=O)Nc1cccc(C)n1)CC(C)(C)O2
- IC50 [1]: 0.112 µM

Compound: Cn1cc(-c2cccc(NC(=O)c3cc4c(nc3O[C@H]3C[C@H](O)C3)OC(C)(C)C4)n2)cn1
- bioavailability [2]: 11%
- clearance [3]: 18 mL/min/kg

Compound: CCOc1nc2c(cc1C(=O)Nc1cccc(C(F)(F)F)n1)CC(C)(C)O2
- IC50 [1]: 0.194 µM

Compound: Cn1cc(-c2cccc(NC(=O)c3cc4c(nc3OC3CCC3)OC(C)(C)C4)n2)cn1
- bioavailability [2]: 3.1%
- IC50 [1]: 0.006 µM
- clearance [3]: 41 mL/min/kg

Compound: Cn1cc(-c2cccc(NC(=O)c3cc4c(nc3OC3CC3)OC(C)(C)C4)n2)cn1
- bioavailability [2]: 1.6%
- clearance [3]: 43 mL/min/kg

Compound: Cn1cc(-c2cccc(NC(=O)c3cc4c(nc3OC3COC3)OC(C)(C)C4)n2)cn1
- bioavailability [2]: 1.5%
- clearance [3]: 58 mL/min/kg

Compound: Cn1cc(-c2cccc(NC(=O)c3cc4c(nc3O[C@H]3C[C@@H](O)C3)OC(C)(C)C4)n2)cn1
- IC50 [4]: > 30 µM
- fraction unbound [5]: 0.03
- IC50 [6]: 8.35 µM
- IC50 [7]: > 30 µM
- Activity [8]: Toxic
- IC50 [9]: > 30 µM
- IC50 [10]: > 30 µM
- IC50 [11]: 0.788 µM
- IC50 [12]: 0.034 µM
- IC50 [13]: 2.99 µM
- IC50 [14]: 0.495 µM
- IC50 [15]: 0.214 µM
- IC50 [16]: > 30 µM
- bioavailability [2]: 21%
- IC50 [17]: 0.011 µM
- IC50 [18]: > 30 µM
- IC50 [19]: 25.7 µM
- IC50 [20]: 0.56 µM
- IC50 [21]: 0.009 µM
- IC50 [22]: > 30 µM
- LBF [23]: < 30%
- IC50 [24]: 0.131 µM
- IC50 [25]: 1.2 µM
- IC50 [26]: 0.0541 µM
- IC50 [27]: > 30 µM
- Activity [28]: Toxic
- Activity [29]: Toxic
- IC50 [30]: 4.69 µM
- clearance [3]: 12 mL/min/kg
- fraction unbound [31]: 0.01
- IC50 [32]: 26.5 µM
- IC50 [33]: 16.5 µM
- fraction unbound [34]: 0.02
- IC50 [35]: > 30 µM
- IC50 [36]: > 30 µM
- Kd [37]: 0.013 µM
- inhibition [38]: Active

Compound: Cn1cc(-c2cccc(NC(=O)c3cc4c(nc3OC3CCCC3)OC(C)(C)C4)n2)cn1
- IC50 [1]: 0.0057 µM

Compound: CCOc1nc2c(cc1C(=O)Nc1cccc(OC)n1)CC(C)(C)O2
- IC50 [1]: 0.087 µM

Compound: CCOc1nc2c(cc1C(=O)Nc1cnn3cccnc13)CC(C)(C)O2
- IC50 [1]: 0.096 µM

Compound: COc1nc2c(cc1C(=O)Nc1cccc(-c3cnn(C)c3)n1)CC(C)(C)O2
- IC50 [1]: 0.051 µM

Next, values leading:

- IC50 [1]: 0.111 µM
Compound: CNCCOc1nc2c(cc1C(=O)Nc1cccc(-c3cnn(C)c3)n1)CC(C)(C)O2

- IC50 [1]: > 6 µM
Compound: CCOc1nc2c(cc1C(=O)Nc1cnn(C)c1)CC(C)(C)O2

- bioavailability [2]: 7.5%
- IC50 [1]: 0.0058 µM
- clearance [3]: 44 mL/min/kg
Compound: CC(C)Oc1nc2c(cc1C(=O)Nc1cccc(-c3cnn(C)c3)n1)CC(C)(C)O2

- IC50 [1]: 0.075 µM
Compound: CCOc1nc2c(cc1C(=O)Nc1cccc(-c3ccnn3C)n1)CC(C)(C)O2

- IC50 [1]: 0.074 µM
Compound: CN1CCC(Oc2nc3c(cc2C(=O)Nc2cccc(-c4cnn(C)c4)n2)CC(C)(C)O3)C1 (stereo unspecified)

- bioavailability [2]: 3.6%
- clearance [3]: 43 mL/min/kg
Compound: CCOc1nc2c(cc1C(=O)Nc1cccc(-c3cnn(C)c3)n1)CC(C)(C)O2

- IC50 [1]: 0.379 µM
Compound: Cn1cc(-c2cccc(NC(=O)c3cc4c(nc3OC3CCNC3)OC(C)(C)C4)n2)cn1 (stereo unspecified)

- IC50 [1]: 0.048 µM
Compound: CCOc1nc2c(cc1C(=O)Nc1cccc(C(F)F)n1)CC(C)(C)O2

- bioavailability [2]: 6.2%
- clearance [3]: 31 mL/min/kg
Compound: Cn1cc(-c2cccc(NC(=O)c3cc4c(nc3O[C@@H]3CCOC3)OC(C)(C)C4)n2)cn1

- IC50 [1]: 1.37 µM
Compound: CCOc1nc2c(cc1C(=O)Nc1cccc(-c3ccn(C)n3)n1)CC(C)(C)O2
